Data as given in patent publication US6958236B2, “Control of gene expression in plants” (priority 2000, dated 2005).
Where “and” joins values, the source holds several entries; their conditions need not be identical. Identical values can stand only once.

What was measured:
[1] = test system: Transgenic plants harboring DNA from the plasmids pCGS202 and pCGS601; assay: Chemical induction of transgenic maize plants, photon emission of leaves after luciferin spray; type: in vivo
Experimental: This mixture is applied directly to one leaf of a plant while a control formulation mixture containing ethanol instead of tebufenozide is applied to another leaf. Treatments are left on the leaves between 24-48 hours. Plants are then treated by spraying the leaves with a mixture containing 7.5 mM luciferin and 1% surfactant and incubating for 5 minutes. Either whole plants or tissues are placed into a dark box and photon emission is monitored using a digital camera and software that counts the accumulated photons that are emitted. Both the image of the tissue and the total photon count is recorded.
Plants at V5 stage are treated as above. The plants treated with tebufenozide emit substantial amounts of light compared with those treated with ethanol only. The table below contains actual counts of leaf samples from maize plants transformed with pCGS601 and pCGS202.
Late stage post pollinated maize plants are also treated as above. Leaves are analyzed as above and the total photon counts are recorded in the table below.

[2] = test system: Transgenic maize plants containing pCGS601 and pCGS202; assay: Chemical induction of transgenic maize plants, luciferase activity of leaf extract; type: in vivo
Experimental: A formulation mixture containing 10% of a 2.0 mM tebufenozide solution in ethanol and 1% surfactant is applied directly to the leaves of the transgenic maize plants. The solution is left on the leaves between 18 and 40 hours. Leaves are then frozen in liquid nitrogen and ground to a powder. Subsequently, leaves are homogenized in cell culture lysis reagent (CCLR; 25 mM Tris-phosphate pH 7.8, 2 mM DTT, 2 mM 1,2-diaminoclyclohexane-N,N,N′,N′-tetraacetic acid, 10% glycerol, and 1% triton X-100). After spinning for 7 minutes at 14,000 g to pellet the cell debris, 20 μl of the supernatant is assayed for luciferase activity by the standard method (as described in the preceding examples).
Six plants are treated with chemistry: three with ethanol as control and three with tebufenozide. After 40 hours, plants are assayed for luciferase activity.
To determine fold induction with tebufenozide, leaves of individual plants are compared for activity. Using the same plant, one leaf is treated with ethanol and another with tebufenozide. The plants are incubated for 18 hours and assayed for luciferase activity as described above.

[3] = test system: GAL4×10-Luciferase vector pCGS206; assay: Tobacco BY2 suspension cells bombarded with receptor vector and GAL4x10-Luciferase vector, GUS-normalized luciferase; type: cell-based, Nicotiana tobaccum L. cv. Bright Yellow 2; conditions: absence of the EcR receptor
Experimental: The GAL4-MV expression vector pCGS432 and the GAL4×10-Luciferase vector pCGS206 are simultaneously delivered into BY2 suspension cells (Nicotania tobacum L. cv. Bright Yellow 2) by high velocity microprojectile bombardment. A β-glucuronidase (GUS) vector is included as an internal control for transfection efficiency between samples. Transfected cells are incubated overnight in the presence and absence of the appropriate chemical ligand (tebufenozide (Teb), RH5889) in BY2 liquid culture media. After incubation, the cells are harvested and lysed by mechanical disruption. Cellular debris is removed by centrifugation at 20,800 g at 4° C. for 10 minutes. Cell lysates are assayed for luciferase expression levels using the Promega Luciferase Kit (Promega cat #E1500) using a Turner Designs TD 20/20 luminometer. GUS expression levels are determined using the GUS-Light kit (Tropix). […]
The GAL4-Manduca EcR-C1 expression vectors (pCGS441, pCGS442, and pCGS443) and the GAL4×10-Luciferase vector pCGS206 (Example 10) are simultaneously delivered into BY2 suspension cells (Nicotiana tobaccum L. cv. Bright Yellow 2) by high velocity microprojectile bombardment. […] Cell lysates are assayed for luciferase expression levels using the Promega Luciferase Kit (cat #E1500) using a Turner Designs TD 20/20 luminometer. β-glucuronidase expression levels are determined using the GUS-Light kit (Tropix). […]

In the case of `CCc1ccc(C(=O)NN(C(=O)c2cc(C)cc(C)c2)C(C)(C)C)cc1` [tebufenozide], the “Fold Induction” value ([1]; in vivo) is reported as 116 Fold, the “Total Photons Counted” value ([1]; leaf, late stage post pollinated maize plants) is reported as 110,766 and the “Fold Induction” value ([1]; leaf, late stage post pollinated maize plants, tebufenozide vs ethanol) is reported as 30 Fold. For the same compound, the “Total Photons Counted” value ([1]; leaf, plants at V5 stage, 2.0 mM RH5992 in 1% surfactant, 24-48 hours) was 187,784, the “Activity (luciferase)” value ([2]; leaves treated with 10% of 2.0 mM tebufenozide solution, 1% surfactant, 40 hours, individual plants 4-6) was 2729 and 745.3 and 2373 and the “fold induction after treatment with tebufenozide” value ([2]; maize, in vivo, 18 h, 0.2 mM) was 10-40 fold. The “induction above the ethanol controls” value ([2]; transgenic maize plants, 40 hours) was “significant induction” and the “activation of the luciferase reporter without receptor” value [3] was “does not activate the reporter in the absence of the EcR receptor”.
